# From the supplement of paper PMC10307832
# Assays:
# Test in all cases: relative viability (nuclei count vs DMSO), 5 days (fraction); higher = more cells survive
# NVP-TAE684 + Alpelisib = compound: COc1cc(N2CCC(N3CCN(C)CC3)CC2)ccc1Nc1ncc(Cl)c(Nc2ccccc2S(=O)(=O)C(C)C)n1 [NVP-TAE684] + Cc1nc(NC(=O)N2CCC[C@H]2C(N)=O)sc1-c1ccnc(C(C)(C)C(F)(F)F)c1 [Alpelisib] (partner 2 µM)
# Procedure, shortened: (§1)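 Lung cancer cell lines, seeded in 1536-well plates, were treated the following day by pin tool with a single drug or with five library-drug doses (not always all listed) in √10 steps on top of a fixed anchor-drug dose. Cells were fixed and nuclei stained in one step after 5 days, and nuclei were counted. Relative viability is the nuclei count for treated wells divided by that for vehicle wells, reported as medians of duplicate plates.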
# Vandetanib + Bortezomib = compound: COc1cc2/c(=N/c3ccc(Br)cc3F)nc[nH]c2cc1OCC1CCN(C)CC1 [Vandetanib] + CC(C)C[C@H](NC(=O)[C@H](Cc1ccccc1)NC(=O)c1cnccn1)B(O)O [Bortezomib] (partner 0.002 µM)
# Procedure, shortened: as §1
# CUDC-101 + Vorinostat = compound: C#Cc1cccc(Nc2ncnc3cc(OC)c(OCCCCCCC(=O)NO)cc23)c1 [CUDC-101] + O=C(CCCCCCC(=O)Nc1ccccc1)NO [Vorinostat] (partner 1 µM)
# Procedure, shortened: as §1
# NVP-TAE684 + Trametinib = compound: COc1cc(N2CCC(N3CCN(C)CC3)CC2)ccc1Nc1ncc(Cl)c(Nc2ccccc2S(=O)(=O)C(C)C)n1 [NVP-TAE684] + CC(=O)Nc1cccc(-n2c(=O)n(C3CC3)c(=O)c3c(Nc4ccc(I)cc4F)n(C)c(=O)c(C)c32)c1 [Trametinib] (partner 0.02 µM)
# Procedure, shortened: as §1
# NVP-TAE684 + OSI-027 = compound: COc1cc(N2CCC(N3CCN(C)CC3)CC2)ccc1Nc1ncc(Cl)c(Nc2ccccc2S(=O)(=O)C(C)C)n1 [NVP-TAE684] + COc1cccc2cc(-c3nc([C@H]4CC[C@H](C(=O)O)CC4)n4ncnc(N)c34)[nH]c12 [OSI-027] (partner 0.5 µM)
# Procedure, shortened: as §1
cell line,measurement,setting,value
UMC-11,relative viability,NVP-TAE684 + Alpelisib; first compound 0.2 µM,0.961
same,relative viability,NVP-TAE684 + Alpelisib; first compound 0.6325 µM,0.915
same,relative viability,NVP-TAE684 + Alpelisib; first compound 2 µM,0.213
same,relative viability,Vandetanib + Bortezomib; first compound 0.02 µM,0.743
same,relative viability,Vandetanib + Bortezomib; first compound 0.06325 µM,0.708
same,relative viability,Vandetanib + Bortezomib; first compound 0.2 µM,0.61
same,relative viability,Vandetanib + Bortezomib; first compound 0.6325 µM,0.725
same,relative viability,Vandetanib + Bortezomib; first compound 2 µM,0.746
same,relative viability,CUDC-101 + Vorinostat; first compound 0.01 µM,0.359
same,relative viability,CUDC-101 + Vorinostat; first compound 0.03162 µM,0.317
same,relative viability,CUDC-101 + Vorinostat; first compound 0.1 µM,0.32
same,relative viability,CUDC-101 + Vorinostat; first compound 0.3162 µM,0.129
same,relative viability,CUDC-101 + Vorinostat; first compound 1 µM,0.0877
same,relative viability,NVP-TAE684 + Trametinib; first compound 0.2 µM,0.701
same,relative viability,NVP-TAE684 + Trametinib; first compound 0.6325 µM,0.636
same,relative viability,NVP-TAE684 + Trametinib; first compound 2 µM,0.434
same,relative viability,NVP-TAE684 + OSI-027; first compound 0.2 µM,0.412
same,relative viability,NVP-TAE684 + OSI-027; first compound 0.6325 µM,0.438
same,relative viability,NVP-TAE684 + OSI-027; first compound 2 µM,0.282
